# “And” between values parts separate entries of the source, which are not always exact repeats. Identical values can stand only once. Like-named read-outs stand apart in the source and are kept apart here.
# How the values were obtained:
# [1] = test system: KB-8-5 cells; experiment: In vivo hollow fiber test: KB-8-5; set-up: species or system NCr nu/nu mice; settings: vinblastine 100 μg/kg; reversing agents 0.136 mmol/kg
# Protocol: (§1) In vivo hollow fiber test. […] Confluent monolayers of KB-3, KB-V1 or KB-8-5 cells were harvested, collected by centrifugation and resuspended in conditioned medium at a concentration of 7.5×10^5 cells/ml.
# (§2) Test compounds were administrated once daily by intraperitoneal injection from day 3–6 after implantation. Body weights were measure daily.
# (§3) After incubating at 37° C. for 4 hours, the culture medium was aspirated and the samples were washed twice with normal saline containing 2.5% protamine sulfate solution by overnight incubation at 4° C. […] The formazan was extracted from each sample with DMSO (250 μl/well) for 4 hours at room temperature on a rotation platform.
# [2] = test system: CEM/VLB100 cells; experiment: MDR reversal in drug-resistant human leukemia CEM/VLB100 cells; type: cell-based; settings: Homo sapiens; CEM/VLB100 cells; read-out: IC50 value of the cytotoxic drug in the absence of modulator
# Protocol: (§4) Cytotoxic potential. The cytotoxic potential of test substances with KB-3, KB-V1 and KB-8-5 cells was determined as described previously (24). Briefly, various concentrations of test compounds (dissolved in 10 μl of 10% DMSO) were transferred to 96-well plates, and 190 μl aliquots of cell suspensions (5×10^4 cells/ml) were added to each well. The plates then were incubated for 72 hours at 37° C. (100% humidity with a 5% CO2 atmosphere in air), and 100 μl of cold 20% aqueous trichloroacetic acid were added to the growth medium in each well to fix the cells. The cultures were incubated at 4° C. for 30 minutes, washed, air-dried, stained with sulforhodamine B solution, and washed with 1% acetic acid. […] In each case, a zero-day control was performed by adding an equivalent number of cells to several wells and incubating at 37° C. for 30 minutes, and processing as described above. Optical density values obtained with the zero-day control were subtracted, and cell survival, relative to control (solvent-treated) cultures, was calculated. The cytotoxic potential of the compounds with CEM and CEM/VLB100 cells was determined as described by Beck et al. (30). Cells were grown in 24-well plates at a density of 5–6×10^5 cells/ml. At 48 hours, the cell number was determined using a Coulter Counter, with a channelizer to distinguish cells from debris.
# [3] = test system: KB-3 cells; experiment: Growth inhibitory potential (sulforhodamine B cell survival assay): KB-3; type: cell-based; settings: Homo sapiens, read-out: IC50 KB-3
# Protocol: (§5) One part of a natural product drug discovery program involves monitoring the potential of plant extracts to reverse multiple drug resistance. […] To investigate the potential of plant extracts or compounds to reverse multidrug-resistance, KB-V1 cells are treated with different concentrations of plant extracts or compounds in the presence (1 μg/ml) or absence of vinblastine.
# Cytotoxic potential. The cytotoxic potential of test substances with KB-3, KB-V1 and KB-8-5 cells was determined as described previously (24). Briefly, various concentrations of test compounds (dissolved in 10 μl of 10% DMSO) were transferred to 96-well plates, and 190 μl aliquots of cell suspensions (5×10^4 cells/ml) were added to each well. The plates then were incubated for 72 hours at 37° C. (100% humidity with a 5% CO2 atmosphere in air), and 100 μl of cold 20% aqueous trichloroacetic acid were added to the growth medium in each well to fix the cells. The cultures were incubated at 4° C. for 30 minutes, washed, air-dried, stained with sulforhodamine B solution, and washed with 1% acetic acid. Finally, 200 μl of 10 mM Tris base were added to each well and the optical densities were determined at 515 nm utilizing an ELISA plate reader. In each case, a zero-day control was performed by adding an equivalent number of cells to several wells and incubating at 37° C. for 30 minutes, and processing as described above. Optical density values obtained with the zero-day control were subtracted, and cell survival, relative to control (solvent-treated) cultures, was calculated. The cytotoxic potential of the compounds with CEM and CEM/VLB100 cells was determined as described by Beck et al. (30). Cells were grown in 24-well plates at a density of 5–6×10^5 cells/ml. At 48 hours, the cell number was determined using a Coulter Counter, with a channelizer to distinguish cells from debris.
# [4] = test system: KB-V1 cells; settings: growth inhibitory effect of vinblastine; cited from earlier work
# [5] = test system: KB-V1 cells; experiment: In vivo hollow fiber test: KB-V1; set-up: species or system NCr nu/nu mice; settings: for growth inhibition, administered as single agents: KB-V1 or KB-8-5 cells in hollow fibers implanted into NCr nu/nu mice; for Observed inhibition from coadministration with vinblastine, KB-V1, i.p. site / Growth inhibition, single agent, KB-V1, s.c. site: i.p. injection once daily days 3–6; for Growth inhibition, single agent, KB-V1, s.c. site: vinblastine 250 μg/kg, reversing agents 0.136 mmol/kg
# Protocol: as §1, §2, §3
# [6] = test system: KB, oral epidermoid carcinoma; experiment: In vitro cytotoxicity, human tumor panel: KB; type: cell-based; settings: Homo sapiens, read-out: ED50 KB
# Protocol: (§6) Cytotoxicity assay. Compounds 1–9 were evaluated for cytotoxic activity against a panel of human cancer cell lines, including KB-V1 in the presence and absence of VLB, according to an established protocol (68).
# [7] = test system: KB-V1, drug resistant KB; experiment: In vitro cytotoxicity, human tumor panel: KB-V1 with or without vinblastine; type: cell-based
# Protocol: as §6
# [8] = test system: KB-V1 cells; experiment: Reversal of MDR, cell survival assay: KB-V1 with or without vinblastine; type: cell-based, human
# Protocol: as §5, §4
# [9] = test system: SKOV3 (ovarian adenocarcinoma); experiment: Cytotoxicity in ovarian adenocarcinoma SKOV3 (pGp -ve); type: cell-based; settings: Homo sapiens, SK-OV-3, read-out: IC50 SKOV3 (pGp − ve)
# Protocol: as §6
# [10] = test system: LNCaP, hormone-dependent prostate cancer; experiment: In vitro cytotoxicity, human tumor panel: LNCaP; type: cell-based; settings: Homo sapiens, LNCaP, read-out: ED50 LNCaP
# Protocol: as §6
# [11] = test system: Col2, colon cancer; experiment: In vitro cytotoxicity, human tumor panel: Col2; type: cell-based; settings: Homo sapiens, read-out: ED50 Col2
# Protocol: as §6
# [12] = test system: BC1, breast cancer; experiment: In vitro cytotoxicity, human tumor panel: BC1; type: cell-based; settings: Homo sapiens, read-out: ED50 BCI
# Protocol: as §6
# [13] = test system: Lu1, lung cancer; experiment: In vitro cytotoxicity, human tumor panel: Lu1; type: cell-based; settings: Homo sapiens, read-out: ED50 Lu1
# Protocol: as §6
# [14] = test system: CAKI-1, renal; experiment: In vitro multidrug resistance modulation (DINIB synergy): CAKI-1; type: cell-based, human; settings: increase of cytotoxicity of DINIB 1 × 10^−4 M; modulator μg/mL: verapamil 12.5, cyclosporin A 6.3, pervilleine B 12.5, C 3.1, D 50.0, F 25.0; <25 insignificant, >100 strong synergy
# Source text: (§7) Alkaloids 5–7 and 9 were further evaluated for their efficacy as potential modulators of P-glycoprotein. This assay assessed the ability of these test compounds to increase the cytotoxicity of an agent of the MDR phenotype {4,9-dihydro-3-iso-butyl-2-methyl-1-(p-nitrophenacyl)-4,9-dioxo-1H-naphth[2-3-d]imidazolium bromide (DINIB)}, compared with an agent not of the MDR phenotype (5-flurouracil), used as a negative control (73, 74).
# (§8) In vitro multidrug resistance assay.
# [15] = test system: UO-31, renal; experiment: In vitro multidrug resistance modulation (DINIB synergy): UO-31; type: cell-based, human; settings: increase of cytotoxicity of DINIB 1 × 10^−4 M; modulator μg/mL: verapamil 12.5, cyclosporin A 6.3, pervilleine B 12.5, C 3.1, D 50.0, F 25.0; <25 insignificant, >100 strong synergy
# Source text: as §7, §8
# [16] = test system: HCT-15, colon; experiment: In vitro multidrug resistance modulation (DINIB synergy): HCT-15; type: cell-based, human; settings: increase of cytotoxicity of DINIB 1 × 10^−4 M; modulator μg/mL: verapamil 12.5, cyclosporin A 6.3, pervilleine B 12.5, C 3.1, D 50.0, F 25.0; <25 insignificant, >100 strong synergy
# Source text: as §7, §8
# [17] = test system: SW626, human ovarian adenocarcinoma; experiment: In vitro cytotoxicity, human tumor panel: SW626; type: cell-based; settings: SW626, read-out: ED50 SW626
# Protocol: as §6
# [18] = test system: SKVLB (ovarian adenocarcinoma, multidrug resistance); experiment: Multidrug resistance inhibition in SKVLB (pGp +ve); type: cell-based, human; settings: Homo sapiens
# [19] = test system: LOX IMVI, melanoma; experiment: In vitro multidrug resistance modulation (DINIB synergy): LOX IMVI; type: cell-based, human; settings: increase of cytotoxicity of DINIB 1 × 10^−4 M; modulator μg/mL: verapamil 12.5, cyclosporin A 6.3, pervilleine B 12.5, C 3.1, D 50.0, F 25.0; <25 insignificant, >100 strong synergy
# Source text: as §7, §8
# [20] = vinblastine 250 μg/kg + reversing agent 0.136 mmol/kg
# [21] = summation of single-agent inhibitions
smiles,measurement,setting,value
"CC[C@]1(O)C[C@@H]2CN(CCc3c([nH]c4ccccc34)[C@@](C(=O)OC)(c3cc4c(cc3OC)N(C)[C@H]3[C@@](O)(C(=O)OC)[C@H](OC(C)=O)[C@]5(CC)C=CCN6CC[C@]43[C@@H]65)C2)C1 [vinblastine, reference compound]","Growth inhibition, single agent, KB-8-5, s.c. site",[1],2.3%
same,IC50,[2],5 µM
same,IC50,"[3]; KB3, 72 hours",40 nM
same,resistance of KB-V1 cells relative to parental KB-3 cells,[4],> 200 fold
same,"growth inhibition, administered as single agents",[5],not significantly inhibited
same,"Observed inhibition from coadministration with vinblastine, KB-V1, i.p. site",[5]; [20],60.3%
same,"Growth inhibition, single agent, KB-V1, s.c. site",[5],3.8% and 0%
"COc1cc(C=CC(=O)O[C@H]2C[C@H]3C[C@H](OC(=O)C=Cc4cc(OC)c(OC)c(OC)c4)[C@@H](C2)N3C)cc(OC)c1OC [Compound 6, 3α,6β-di-(3,4,5-trimethoxycinnamoyloxy)tropane]",IC50,[6],2.2 µg/mL
same,IC50,"[7]; Homo sapiens, KB-V1, drug-resistant KB assessed in the absence of vinblastine, read-out: ED50 KB-V1−",9 µg/mL
same,ED50 KB-V1+,[7]; drug resistant KB assessed in presence of vinblastine (1 μg/mL),0.1 µg/mL
same,IC50,"[8]; Homo sapiens, KB-V1, absence of vinblastine, 72 hours, read-out: IC50 KB-V1 (−)",15 µM
same,Ratio of IC50 values [KB-V1 (−)]/[KB-V1 (+)],[8]; vinblastine 1 μg/ml,88
same,IC50,[9],2800 nM
same,IC50,[10],> 20 µg/mL
same,IC50,[11],4.1 µg/mL
same,IC50,[12],2.8 µg/mL
same,IC50,[13],2.3 µg/mL
same,IC50,"[3]; KB3, 72 h",3700 nM
same,"synergy value at a 95% confidence level, CAKI-1",[14],332.3
same,"synergy value at a 95% confidence level, UO-31",[15],444.0
same,"synergy value at a 95% confidence level, HCT-15",[16],946.7
same,IC50,[17],1.4 µg/mL
same,IC50,[18]; read-out: IC50 BSKVLB (pGp + ve),> 10000 nM
same,IC50,"[18]; read-out: IC50 SKVLB (pGp + ve), addition of adriamycin",80 nM
same,"growth inhibition, administered as single agents",[5],not significantly inhibited
same,"Calculated inhibition (vinblastine + reversing agent as single agents), KB-V1, i.p. site",[5]; [21],15.9%
same,"Calculated inhibition (vinblastine + reversing agent as single agents), KB-V1, s.c. site",[5]; [21],3.8%
same,"Observed inhibition from coadministration with vinblastine, KB-V1, s.c. site",[5]; [20],0.2 (P = 0.96) %
same,"Observed inhibition from coadministration with vinblastine, KB-V1, i.p. site","[5]; vinblastine 250 μg/kg + reversing agent 0.136 mmol/kg, listed as pervilleine C",77.7 (P < 0.0001) %
same,"Growth inhibition, single agent, KB-V1, s.c. site",[5],0%
same,"synergy value at a 95% confidence level, LOX IMVI",[19],32.6

# — US6989396B2, “Tropane alkaloid multidrug resistance inhibitors from Erythroxylum pervillei and use of the same” (The Board of Trustees of the University of Illinois, priority 2001, dated 2006)
